Results from US20050124554A1, “Spermidine derivatives for the treatment of chronic neurodegenerative diseases” (priority 2002, published 2005).

Tests used:
[1] = previous studies, WO99/31049; cited from earlier work
[2] = tested on: superoxide production in organotypic slice cultures (CA1 pyramidal cell layer); assay: Superoxide production monitored fluorescently with hydroethidine (HEt); assay type: cell-based, Wistar rat
Method: Hydroethidine (HEt) has been utilised to fluorescently monitor the production of superoxide in primary neuronal cultures [Bindokas et al., (1996), Carriedo et al. (1998)]. A stock solution of HEt was made was made in N2 sparged DMSO (10 mg ml^−1) which was then aliquoted and stored at −80° C. aliquots were used only once before being discarded. Two separate experimental paradigms were employed to test the effect of L-Arg3,4 on superoxide production in response to either AMPA or NMDA stimulation.
For the AMA experiments, organotypic slice cultures were loaded with 1 μg ml^−1 HEt in HEPES buffered salt solution (HSS) (in mM): glucose 10, NaCl 144, KCl 5, HEPES 10, MgCl2 1, CaCl2 2, pH 7.4, for 30 minutes in the dark. All subsequent solutions contained HEt to prevent a decrease in signal due to reporter depletion. Images were acquired once per minute for the duration of the experiment on the same system as described above for assessment of cell death. A 10 minute record of baseline superoxide production was produced before the bathing solution was exchanged for HBSS+BEt containing 10 μM AMPA, again for 10 minutes. As shown previously, stimulation of glutamate receptors with AMPA lead to an increase in superoxide production [Bindokas et al., (1996), Carriedo et al. (1998)]. The bathing solution was then exchanged for HBSS+HEt containing both 10 μM AMPA and 300 μM L-Arg3,4 for 10 minutes to test the effect of L-Arg3,4 on superoxide production. In separate control experiments, 300 μM L-Arg3,4 in HSS was incubated with slices to determine if it affected baseline superoxide production on its own.
Acquired images from the AMPA experiments were then analysed with the OpenLab image analysis package. A region of interest was drawn around the CA1 pyramidal cell layer because this was the cell layer that produced the largest increase in fluorescence in response to AMPA activation. In each image, within the region of interest, the average pixel value was calculated in arbitrary units (AU) to produce a record of fluorescence intensity values over time. A linear regression was then performed on the data to calculate the rate of superoxide production as change in intensity over time (arbitrary units per minute, AU min^−1) for each of the treatments. Data is presented as mean±s.d. Rates of superoxide production were then compared by ANOVA followed by post-hoc comparisons with Bonferroni corrections with significance indicated as * for P<0.05 and ** for P<0.01.

[3] = tested on: organotypic hippocampal slice cultures (CA1 pyramidal cell layer); assay: Free-radical mediated injury (duroquinone), cell death by PI fluorescence; assay type: cell-based, Wistar rat; conditions: 100 μM duroquinone 3 h; 300 μM compound
Method: Organotypic hippocampal slice cultures were prepared according to established methods (Pringle et al. (1997), Brain Res., 755, 36-46). In brief, Wistar rat pups (8-11 days old) were decapitated and the hippocampus rapidly dissected into ice-cold Gey's balanced salt solution (Gibco Life Technologies, Paisley, UK) supplemented with 4.5 mg ml^−1 glucose. Slices were separated and plated onto Millicell CM culture inserts (4 per well) and maintained at 37° C. and 5% CO2 for 14 days. […]
Free-radical mediated injury was performed as described previously with L-Arg3,4 present pre-, during, and post-injury in treated cultures (Wilde et al. (1997, J. Neurochem., 69, 883-886). Briefly, cultures were transferred to SFM+PI with or without 300 μM L-Arg3,4 and allowed to equilibrate for 30 min prior to imaging. Any cultures in which PI fluorescence was detected at this stage were excluded from further study. Duroquinone (DQ) was dissolved in DMSO at a stock concentration of 100 mM which was then diluted 1:1000 in SFM for a final working concentration of 100 μM (final DMSO concentration of 0.1%). […]
Neuronal damage was assessed as described previously (Pringle et al. (1996), Stroke, 27, 2124-2130; Pringle et al. (1997), Brain Res., 755, 36-46). Light transmission images were captured prior to the induction of injury, and PI fluorescence images recorded at the end of the 24 h post-injury recovery period. […]

[4] = tested on: organotypic hippocampal slice cultures (CA1 or CA3 pyramidal cell layer); assay: Excitotoxic injury by glutamate receptor agonists, cell death by PI fluorescence; assay type: cell-based, Wistar rat; conditions: for protection: 300 μM
Method: Organotypic hippocampal slice cultures were prepared according to established methods (Pringle et al. (1997), Brain Res., 755, 36-46). In brief, Wistar rat pups (8-11 days old) were decapitated and the hippocampus rapidly dissected into ice-cold Gey's balanced salt solution (Gibco Life Technologies, Paisley, UK) supplemented with 4.5 mg ml^−1 glucose. Slices were separated and plated onto Millicell CM culture inserts (4 per well) and maintained at 37° C. and 5% CO2 for 14 days. Maintenance medium consisted of 25% heat-inactivated horse serum, 25% Hank's balanced salt solution (HBSS) and 50% minimum essential medium with added Earle's salts MM, ICN Biomedicals, Basingstoke, UK) supplemented with 1 mM glutamine and 4.5 mg ml^−1 glucose. Medium was changed every 3-4 days.
Excitotoxic injury was performed as previously described (Pringle et al. (1997), Brain Res., 755, 36-46) with L-Arg3,4 present pre-, during, and post-injury fin treated cultures. Cultures were transferred to SFM+PI with or without 300 μM L-Arg3,4 and allowed to equilibrate for 30 min prior to imaging. […] The medium was then exchanged for SFM+PI plus a glutamate receptor agonist (either 10 mM glutamate, 10 μM NMDA, 10 μM AMPA, or 10 μM kainate) for 3 h. After exposure, the media was again exchanged for SFM+PI containing 300 μM L-Arg3,4. Cultures were then returned to the incubator until they were assessed for cell death in the indicated region of the pyramidal cell layer 24 h post exposure.
Neuronal damage was assessed as described previously (Pringle et al. (1996), Stroke, 27, 2124-2130; Pringle et al. (1997), Brain Res., 755, 36-46). Light transmission images were captured prior to the induction of injury, and PI fluorescence images recorded at the end of the 24 h post-injury recovery period. All images were captured on an inverted Leica DM-IRBE epifluorescence microscope (Milton Keynes, UK) fitted with a 100 W Hg lamp and standard rhodamine optics (excitation 510-560 nm; dichroic mirror […]; emission>590 nm). Images were acquired with a 5×NA 0.12 lens and a cooled Hamamatsu digital camera and digitised at 12 bit resolution for analysis in OpenLab 2.1 (Improvision, Coventry, UK) running on a Macintosh G4/400. The area of the CA1 or CA3 cell layer was determined from the transmission image, and the area of PI fluorescence in that cell layers was measured using the density slice function within OpenLab. Neuronal damage was expressed as a percentage of the area in which PI fluorescence was detected above threshold within a cell layer divided by the total area of that cell layer. Protection was calculated as the difference between the damage for a given well and the average damage in untreated controls divided by the average damage in untreated controls. Groups were compared against corresponding control groups using the two tailed Student's t-test with significance indicated as * for P<0.05, and ** for P<0.01. Data is presented as mean±s.e.mean.

SMILES: N=C(N)NCCCC(N)C(=O)NCCCNCCCCN [L-Arg3,4, L-arginyl-3,4-spermidine]
- effect on blood pressure, heart rate, respiration, motor function [1]: did not affect blood pressure, heart rate or respiration, or result in adverse motor function
- rate of baseline superoxide production ([2]; 300 μM compound alone, no AMPA): 2.55±2.02 AU min^−1
- rate of superoxide production ([2]; 300 μM compound in continued presence of 10 μM AMPA): 5.07±1.94 AU min-d
- injury (cell death in CA1) [3]: 21±5%
- protection [3]: 46%
- cell death (damage) in CA1 ([4]; 10 μM AMPA 3 h, 300 μM compound): 19±4%
- protection ([4]; 10 μM AMPA, CA1): 53%
- cell death (damage) in CA1 ([4]; 10 μM NMDA 3 h, 300 μM compound): 16±2%
- protection ([4]; 10 μM NMDA, CA1): 38%
- cell death (damage) in CA3 ([4]; 10 μM kainate 3 h, 300 μM compound): 11±4%
- protection ([4]; 10 μM kainate, CA3): 61%
- cell death (damage) in CA1 ([4]; 10 mM Glut 3 h, 300 μM compound pre-, during, post-injury): 13±3%
- protection ([4]; 10 mM Glut, CA1): 41%
